# Laboratory results from EP0269017B1, “Therapeutic combination of free-radical scavenger or metabolic inhibitor and biologically active protein” (CETUS ONCOLOGY CORPORATION, priority 1986, dated 1988).
# Like-named read-outs stand apart in the source and are kept apart here.
# Experiments:
# [1] = test system: Meth-A tumor cells; assay: TNF mutein and aspirin in mice with Meth-A tumor (Example 4)
# Procedure: Female Balb/c mice were treated by subcutaneous implantation of Meth-A tumor cells as described in Example 1. Five mice per group were employed. Treatment was initiated seven days after the implantation.
# A protocol was employed wherein aspirin or the TNF mutein of Example 1 alone, or aspirin together with the TNF mutein, were administered intravenously. In the combination group, aspirin was administered daily for five days and each dose was followed 1-4 hours later by TNF. PBS was used as a control.
# The headings are defined in the footnotes of Table I. TABLE V
# [2] = test system: Meth-A tumor cells; assay: TNF mutein with NDGA, aspirin or both in mice with Meth-A tumor (Example 5); settings: no TNF, aspirin 30 mg/kg i.v. and/or NDGA 15.6 mg/kg i.p. every third day 3 times; for △TW: day 14
# Procedure: Female Balb/c mice were treated by subcutaneous implantation of Meth-A tumor cells as described in Example 1.
# Details of the protocols are in the footnotes of Table VI. PBS was used as a control. Results were evaluated 14 days after initiation of treatment. The headings are defined in the footnotes of Table I. TABLE VI
# [3] = test system: Meth-A tumor cells; assay: TNF mutein and BSO in mice with Meth-A tumor (Example 3); type: in vivo, Female Balb/c mice; settings: BSO 1.25 g/kg alone, i.p. twice daily for ten days
# Procedure: Female Balb/c mice were implanted subcutaneously with Meth-A tumor cells as described in Example 1. Treatment was initiated seven days after the implantation.
# A protocol was employed wherein BSO or the TNF mutein of Example 1 alone, or BSO together with the TNF mutein, were administered. BSO was administered intraperitonally and TNF intravenously. The BSO was started 24 hours prior to TNF administration twice daily (6-8 hours between doses) for ten days and TNF was given with the second BSO dose every third day for three times. BSO excipient was used as a volume control in the TNF alone groups. PBS was used as a control. The protocol is illustrated below: [formula]
# Table III illustrates the results of this study, with the headings defined in the footnotes to Table II. The numbers in parentheses indicate the results from a repeat of the experiment.
# [4] = Smith et al., cited from earlier work
# [5] = test system: methylcholanthrene-induced murine fibrosarcoma (Meth-A); type: in vivo, Female Balb/c mice; settings: uric acid 25 mg/kg alone, i.v. every third day three times
# Excerpt: Female Balb/c mice (Charles River Breeding Laboratories, Inc., Wilmington, MA) that were all 6-8 weeks old were employed in the in vivo tests. Animals were weight matched at 20 ± 3 g, randomized at five per cage, and ear-notched. All animals were held in quarantine observation for seven days after arrival, maintained in microisolator cages (Lab Products, Inc.), and fed standard laboratory diets and drinking water ad lib.
# A mutein of human TNF-α having the first eight amino acids deleted from the N-terminus was prepared as described In U.S. Patent No. 4,677,064 Issued June 30, 1987 and Wang et al., Science (1985) 228:149-153. Briefly, TNF was induced from HL-60 cells and purified and sequenced. Then an intronless sequence encoding human TNF was prepared by producing enriched mRNA, constructing a cDNA library, selecting a probe and probing the library to recover the sequence. Then an ATG start codon was introduced immediately preceding the GTC sequence encoding N-terminal valine of the mature protein by site-directed mutagenesis. Clones were selected and strands ligated into expression vectors to obtain prokaryotic expression of the mutein. […]
# The uric acid dose was slightly below the maximum concentration attainable without decreasing animal weight, determined in a preliminary toxicity study, and was given immediately prior to the TNF inoculation. […]
# [6] = test system: Meth-A tumor cells; type: in vivo, Female Balb/c mice; settings: uric acid 25 mg/kg alone, i.v. once daily for five days
# Procedure: (§1) Female Balb/c mice were implanted subcutaneously with Meth-A tumor cells as described in Example 1.
# An IL-2 mutein, designated des-ala₁-IL2-ser125 (with no alanine at position 1 of the mature IL-2 molecule and a serine at position 125 of the mature IL-2 molecule), was prepared by the method described in U.S. Patent No. 4,518,584, supra, isolated from refractile bodies in accordance with the procedure described in EP-A-0 206 828, published December 30, 1986, and formulated as described in U.S. Patent No. 4,604,377 in sodium dodecyl sulfate.
# Table IX indicates the results obtained when the IL-2 mutein described herein alone, uric acid alone, and various combination injections of the IL-2 mutein and uric acid were administered intravenously to five mice per group (2-3 repeats) beginning seven days after tumor implantation and once daily for five days, with the uric acid being administered immediately prior to (about 10 minutes) the IL-2 administration when both were administered. Final measurements were made on day 14. The excipient control was injected with PBS. The uric acid doses were all 25 mg/kg of mice weight.
# [7] = test system: Meth-A tumor cells; assay: TNF mutein and vitamin C in mice with Meth-A tumor (Example 2); type: in vivo, Female Balb/c mice; settings: for % Control △BW / Cures (△TW=0, or no visible tumor after 21 days from start of treatment) / Deaths / % Control △TW: i.v. every third day for three injections; for % Control △BW / % Control △TW: day 14
# Excerpt: as §1
# [8] = aspirin 30 mg/kg alone, i.v., 14 days after treatment began
# [9] = Vit.C 7 mg/kg, TNF 125 µg/kg where given
# [10] = Vit.C 35 mg/kg, TNF 125 µg/kg where given
# [11] = Vit.C 70 mg/kg, TNF 125 µg/kg where given
compound,measurement,setting,value
CC(=O)Oc1ccccc1C(=O)O [Aspirin],Cures,"[1]; aspirin 30 mg/kg alone, i.v.",0/5
same,Deaths,"[1]; aspirin 30 mg/kg alone, i.v.",0/5
same,△BW,[1]; [8],1.34
same,△TW,[1]; [8],66.6
same,toxicity of aspirin alone,"[1]; aspirin 30 mg/kg, single dose or once a day for five days",non-toxic
same,Cures,[2],0/5
same,Deaths,"[2]; NDGA cell adds (1 tumor death d. 14), aspirin + NDGA cell adds (d. 5)",0/5
same,△TW,[2],60.3
"CCCCS(=N)(=O)CCC(N)C(=O)O (stereo not drawn) [BSO, Buthionine Sulphoximine]",Cures (no palpable tumor on day 14),[3],0/10
same,Deaths,[3],0/10
same,△TW,[3]; mean values,29.8
same,△BW,[3]; mean values of two experiments,1.19
same,toxicity,"[4]; 400-800 mg/kg of BSO orally every eight hours, fifteen doses",toxic
same,toxicity,"[4]; fifteen doses of 100 mg/kg/dose of BSO orally every eight hours, Proceedings of AACR, 28 (March 1987), p. 440",relatively non-toxic
"CC(Cc1ccc(O)c(O)c1)C(C)Cc1ccc(O)c(O)c1 (stereo not drawn) [NDGA, nordihydroguaiaretic acid (4,4'-[2,3-dimethyl-1,4-butanediyl]-bis[1,2-benzenediol])]",Cures,[2],0/5
same,△TW,[2],50.8
"O=c1[nH]c(=O)c2[nH]c(=O)[nH]c2[nH]1 [Uric acid, uric acid]","Cures (△TW=0, or no visible tumor after 21 days from start of treatment)",[5],0/14
same,△TW (ratio of mean tumor volume at 14 days to start of treatment),[5],51.7 ± 17.7
same,Cures,[6],0/5
same,△TW,[6]; day 14,42.3
"O=C1O[C@H]([C@@H](O)CO)C(O)=C1O [Vit.C, Ascorbic Acid]",% Control △BW,"[7]; Vit.C 7 mg/kg, TNF 125 µg/kg immediately after where given",92%
same,"Cures (△TW=0, or no visible tumor after 21 days from start of treatment)",[7]; [9],0/5
same,Deaths,[7]; [9],0/5
same,% Control △TW,[7]; [9],76%
same,"Cures (△TW=0, or no visible tumor after 21 days from start of treatment)",[7]; [10],0/5
same,Deaths,[7]; [10],0/5
same,% Control △BW,[7]; [10],100%
same,% Control △TW,[7]; [10],88%
same,"Cures (△TW=0, or no visible tumor after 21 days from start of treatment)",[7]; [11],0/5
same,Deaths,[7]; [11],0/5
same,% Control △BW,[7]; [11],96%
same,% Control △TW,[7]; [11],74%
same,toxicity of vitamin C alone,"[7]; at the three doses tested (7, 35, 70 mg/kg)",non-toxic
